“Also recorded” adds a separate entry of the source.
Tests used:
[1] = test system: Colorectal cancer mouse tumor models (CT26 tumor model); test: In vivo tumor growth inhibition; details: CT26 tumor mice, 200 μg doxorubicin i.v. three times at intervals of two days, over 33 days, versus PBS blank group
Method: Experiments were conducted to compare and investigate the ability of doxorubicin-conjugated dextran-based nanoparticles whether the nanoparticles could be used as a therapeutic agent capable of inhibiting tumor growth. Colorectal cancer mouse tumor models (CT26 tumor model) were used as tumor models in the experiments. 5×10^6 cells were injected into the flank of mice, and after 10 days, the tumors were visually recognized, and the mice were used for the experiments. The experiments were started by dividing the animal models into a blank group treated with PBS, a group treated with free doxorubicin (free DOX), and a group treated with doxorubicin-conjugated PEG-DNP (DOX@PEG-DNP)). The number of mice corresponding to each group was three, and each administration material was administered to the mouse tumor models via intravenous injection three times at intervals of two days. Here, the amounts of doxorubicin administered to the group treated with free doxorubicin and the group treated with doxorubicin-conjugated PEG-DNP (DOX@PEG-DNP) were 200 μg.
The size of tumors and the weight of mice in the tumor model were checked over 33 days, and the measurement results were monitored and compared. […] As time passed, there was a slight difference in body weight among the groups, but this was thought to be due to the difference of tumor size in the respective groups.

[2] = format: in vivo; details: CT26 tumor mice, 200 μg doxorubicin i.v. three times at intervals of two days, over 33 days

Compound: COc1cccc2c1C(=O)c1c(O)c3c(c(O)c1C2=O)C[C@@](O)(C(=O)CO)C[C@@H]3O[C@H]1C[C@H](N)[C@H](O)[C@H](C)O1 [free doxorubicin, doxorubicin]
- tumor growth inhibition [1]: the tumor growth rate of only one of three mice was not inhibited; also recorded: surely inhibited the tumor growth rate compared with the blank group
- body weight change [2]: the body weight was not rapidly reduced
